Data as given in ChEMBL document CHEMBL1201862, “PubChem BioAssay data set” (2004).
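1) Cells in 96-well plates. 2) Compound, 48 h, 5 concentrations. 3) Linear interpolation between surrounding doses. 4) Unreached endpoint = highest concentration. At the GI50, growth is halved.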 Calls of active or inactive are those of the source. Rule as the data show it: active = GI50 up to about 1.1 µM and inactive = higher.

Key:
Test in all cases: DTP human tumour cell line panel, 48 h
BT-549 = system: BT-549
LXFL 529 = system: LXFL 529
DLD-1 = system: DLD-1
M19-MEL = system: M19-MEL
DMS-273 = system: DMS-273
HOP-18 = system: HOP-18
SNB-78 = system: SNB-78
KM-20L2 = system: KM-20L2
RXF 631 = system: RXF 631

Measured: GI50

Nc1c(C(=O)Nc2ccc([As](=O)(O)O)cc2)cnc2nnnn12
inactive: BT-549 > 100 µM

N/C(=N\c1ccc(Cl)cc1)NS(=O)(=O)c1c(C(F)(F)F)cccc1C(F)(F)F
inactive: BT-549 29.3 µM

CCOC(=O)CNC(=O)c1nc[nH]c1/N=N/N(C)C
inactive: LXFL 529 > 100 µM | DLD-1 > 100 µM | M19-MEL > 100 µM | DMS-273 > 100 µM

CC1=C/C(=C2/N=C(N(C)C)SS2)C(C)=N1.[O-][Cl+3]([O-])([O-])O
inactive: HOP-18 > 100 µM | LXFL 529 > 100 µM | DLD-1 > 100 µM | SNB-78 > 100 µM | KM-20L2 > 100 µM | M19-MEL 10.6 µM | DMS-273 > 100 µM

COc1nc2c(nc(N)n2C2OC(CO)C(O)C(O)C2O)c(=O)[nH]1 (configuration not stated)
inactive: HOP-18 > 100 µM | LXFL 529 > 100 µM | DLD-1 > 100 µM | SNB-78 > 100 µM | KM-20L2 > 100 µM | M19-MEL > 100 µM

CC(=O)NNc1nc(C)c(C(=O)/C=C/c2ccc(NC(C)=O)cc2)s1
inactive: RXF 631 > 100 µM | HOP-18 > 100 µM | DLD-1 > 100 µM | SNB-78 > 100 µM | KM-20L2 > 100 µM | M19-MEL > 100 µM | DMS-273 > 100 µM

CCOc1ccccc1NC(=O)CC(C(=O)OC)C(=O)C(=O)OC (configuration not stated)
inactive: RXF 631 > 100 µM | HOP-18 > 100 µM | LXFL 529 > 100 µM | SNB-78 > 100 µM | KM-20L2 > 100 µM | M19-MEL > 100 µM | DMS-273 > 100 µM

S=C(Nc1ccc2c(c1)oc1ccccc12)c1cccs1
inactive: BT-549 39.9 µM

CC1(C)OC2COC3(CNO)OC(C)(C)OC3C2O1 (configuration not stated)
inactive: HOP-18 > 100 µM | DLD-1 > 100 µM | SNB-78 > 100 µM | M19-MEL > 100 µM | DMS-273 > 100 µM

COc1ccc(OC)c2c(C(=O)O)c(Cc3ccccc3)ccc12
inactive: HOP-18 > 100 µM | LXFL 529 > 100 µM | DLD-1 > 100 µM | KM-20L2 > 100 µM | M19-MEL > 100 µM | DMS-273 > 100 µM

N#CC(C#N)=Cc1c[nH]c(=O)[nH]c1=O
inactive: BT-549 > 100 µM

O=S(=O)(SCc1ccccc1)C(c1ccccc1)c1ccccc1
inactive: LXFL 529 26.5 µM | DLD-1 13.2 µM | SNB-78 30.5 µM | KM-20L2 20.6 µM | M19-MEL 32.4 µM | DMS-273 27.4 µM

O=C1c2ccccc2CCC1C(O)(C(F)(F)F)C(F)(F)F (configuration not stated)
inactive: BT-549 > 100 µM

CC(C)(O)C1COC2=C1C(=O)c1ccccc1C2=O (configuration not stated)
inactive: BT-549 18.2 µM

O=C1O/C(=C\c2ccccc2)N(c2ccccc2)C1=O
inactive: BT-549 > 100 µM

Cc1nc2sc(CCl)nn2c(=O)c1Cl
inactive: BT-549 2.73 µM

CC1(C)CCC[C@@]2(C)C1CC[C@@]1(CO1)[C@@H]2/C=C\C(C=O)CC=O (some centres not stated)
inactive: BT-549 > 100 µM

Nc1ccc(C(=O)N/C(=C\c2cccc([N+](=O)[O-])c2)c2nc3c(O)nc(S)nc3[nH]2)cc1
inactive: RXF 631 37.2 µM | LXFL 529 > 57.7 µM | DLD-1 > 100 µM | SNB-78 39.3 µM | KM-20L2 > 100 µM | M19-MEL > 100 µM | BT-549 > 100 µM

COC1C=C(Nc2cccc(Cl)c2)C(=O)C1 (configuration not stated)
inactive: HOP-18 19.1 µM | LXFL 529 50.8 µM | DLD-1 51.4 µM | SNB-78 48.4 µM | KM-20L2 55.5 µM | M19-MEL > 100 µM | DMS-273 50.4 µM

CCOP(=O)(OCC)[C@]12C[C@@H](C)C=C[C@H]1COC2=O
inactive: BT-549 > 100 µM

CC(=O)NNc1nc(C)c(C(=O)NNC(=O)C(=O)Nc2nc3ccc([N+](=O)[O-])cc3s2)s1
inactive: RXF 631 41.6 µM | LXFL 529 49.9 µM | DLD-1 46.1 µM | SNB-78 69.5 µM | KM-20L2 > 100 µM | M19-MEL 45.5 µM | DMS-273 62.4 µM | BT-549 45.8 µM

CN1C(=O)[C@](C)(Cc2ccc(F)cc2)N(C(=O)OC(C)(C)C)[C@@H]1C(C)(C)C
inactive: BT-549 34.4 µM

COc1cc(/C=C2/SC(c3ccccc3)N(Cc3ccccc3)C2=O)cc(OC)c1OC (configuration not stated)
inactive: BT-549 39 µM

CCN(CC)C(=S)N/N=C/c1cc([N+](=O)[O-])ccc1O
inactive: BT-549 4.54 µM

N#CC1=C(N)C(C#N)(C#N)C(c2ccc(F)cc2)C=C1C1CC1 (configuration not stated)
inactive: BT-549 3.2 µM

COc1ccc(C#CC(=O)O)c(OC)c1
inactive: BT-549 > 100 µM

COC(=O)C(CC(=O)c1ccccc1)c1ccccc1NC(C)=O (configuration not stated)
inactive: RXF 631 > 100 µM | HOP-18 > 100 µM | LXFL 529 > 100 µM | DLD-1 > 100 µM | SNB-78 > 100 µM | KM-20L2 > 100 µM | M19-MEL > 100 µM
